Legend:
[1] = tested on: patients with heart failure; settings: Metra et al. 2000; cited from earlier work
heart failure patients [2] = assay: Heart failure study: ejection fraction and heart rate response by ADRA2C Ins/Del and ADRB1 Arg389Gly genotype; assay type: in vivo, human; settings: concomitant drug in patients on metoprolol CR/XL
Method: Inclusion criteria were age >18 years, NYHA functional class II-III, EF <40% and angiotensin-converting enzyme (ACE) inhibitor or angiotensin receptor blocker treatment on a stable dose for a minimum of four weeks. Patients receiving β-blocker therapy were not eligible.
At baseline, ejection fraction (EF), LV end-diastolic diameter (LVEDD) and LV endsystolic diameter (LVESD) were determined by a two-dimensional (2D) quantitative echocardiogram. Echocardiograms were analyzed by a single experienced echo-cardiologist. This individual had no knowledge of the clinical course or the genotyping results. […] The starting dose for patients in NYHA class II was 25 mg/day. […] Based on α of 0.05 and 80% power, at least 20 patients per genotype group (Ins/Ins or Del Carrier) were required to detect a difference of 6 EF units. […] Therefore, univariate linear regression models were used to predict end of study EF, LVEDD, or LVESD with the Ins/Del variable. […] The multivariate linear regressions included also variables that were significant in the univariate models. Three different step-type selection methods (backward elimination, forward elimination, and minimum R^2 improvement) were used to determine the best-fitting regression model from the maximum model. Model entry was set at P<0.1 and variables with P<0.05 stayed for the next step. […]

heart failure patients [3] = settings: concomitant drug in patients on metoprolol CR/XL; linear regression on final EF
Description: Patients were recruited for this prospective study from the University of Florida and University of North Carolina Heart Failure Clinics. All clinicians involved in clinical decision making were blinded to the genotypic data and all investigators determining the genotypes were blinded to the patient's clinical course. The study was approved by the Institutional Review Board at each institution, and each patient gave written informed consent for participation in the study. The procedures followed were in accordance with institutional guidelines. The study population included patients aged ≧18 years with symptoms of heart failure in NYHA functional class II-III, and with an EF≦40%. […] Patients were not eligible for enrollment if they were receiving β-blocker therapy.
After obtaining informed consent, a 5-mL blood sample for isolation of genomic DNA was collected. […] Left ventricular dimensions at the mid-cavity or chordal level were measured from digitized end diastolic and end systolic parasternal long axis images of the left ventricle.
Patients were divided by genotype and compared for continuous parameters (e.g., LVEF, LVEDD) at baseline as well as changes in these parameters. Comparisons were made by unpaired t-test, ANOVA, Kruskal Wallis test, or Wilcoxon rank sum as appropriate. […]

[4] = S-metoprolol plasma concentrations in heart failure patients on metoprolol CR/XL; assay type: in vivo, human; settings: final metoprolol CR/XL dose, about 2 to 4 hours after dosing
Method: After obtaining informed consent, a 5-mL blood sample for isolation of genomic DNA was collected. Baseline evaluations included a two-dimensional (2D) quantitative echocardiogram for determination of measures such as ejection fraction (EF}, left ventricular end-diastolic diameter (LVEDD), LV end-systolic diameter (LVESD), and completion of a 6-minute walk test. After completion of baseline studies, patients began metoprolol CR/XL. The starting dose of metoprolol CR/XL was 12.5 mg/day for patients in NYHA class III and 25 mg/day for patients in NYHA class II. The dose was doubled on a biweekly basis to 200 mg/day or maximum tolerated dose. Thus, the time for the up-titration period was 8-10 weeks depending on the starting dose of metoprolol CR/XL. Patients underwent a follow-up echocardiogram three months after the attainment of completion of up-titration or attainment of the maximum metoprolol CR/XL dose. Thus, at the time of the follow-up echocardiogram, patients had been receiving metoprolol CR/XL for approximately 5-5.5 months. In a subset of 42 patients who consented to additional blood draws, a pharmacokinetic blood sample was obtained approximately 2 to 4 hours following dosing after two weeks on each metoprolol CR/XL dose for determination of S-metoprolol (active isomer) concentrations.

[5] = tested on: hypertensive men and women; assay: Hypertension study: 24-hour ambulatory blood pressure response to metoprolol by ADRA2C Ins/Del genotype
Method: In the hypertension study, 40 hypertensive men and women aged 35 to 65 years were studied. Hypertension was defined as untreated DBP between 95 mm Hg and 115 mm Hg (2 clinic visits, ≧5 minutes sitting). A certain range for systolic blood pressure (SBP) was not required for study entry. […] Medications for other indications were only allowed if it could not conceivably affect BP.
Patients took 50 mg metoprolol every 12 hours and BP was measured every week at the same time of the day to minimize the impact of diurnal BP variation. To achieve the goal DBP <90 mm Hg, the dose could be increased weekly to 100 mg and the maximum of 200 mg every 12 hours. Doses were not increased if the patient had intolerable side effects.
After the treatment phase, 24-hour ABP monitoring was repeated and blood samples for a pharmacokinetic analysis were taken.
Thus, univariate linear regression was used to model the DBP responses (24-hour, daytime) with the Ins/Del variable. […] This model would also include other, in the univariate model significant variables (P<0.1 for entry).

For `COc1ccccc1OCCNCC(O)COc1cccc2[nH]c3ccccc3c12` (stereo not shown) [carvedilol], the “95% confidence intervals for the change in LVEF” value [1] is given as −11.1 to +32.9.
With `CC(=O)S[C@@H]1CC2=CC(=O)CC[C@]2(C)[C@H]2CC[C@@]3(C)[C@@H](CC[C@@]34CCC(=O)O4)[C@H]12` [Spironolactone, spironolactone] the “Parameter estimate for use of the drug, multiple regression of treatment ejection fraction” value (heart failure patients [2]) was 4.37 and the “Parameter Estimate for use of the drug, multivariate analysis of change in Ejection Fraction” value (heart failure patients [3]) was 6.19 ejection fraction units.
For `COCCc1ccc(OCC(O)CNC(C)C)cc1.COCCc1ccc(OCC(O)CNC(C)C)cc1.O=C(O)CCC(=O)O` (stereo not shown) [metoprolol CR/XL], the “S-metoprolol plasma concentrations, median (interquartile range)” value ([4]; Arg389 homozygotes) was 31 ng/mL and the “S-metoprolol plasma concentrations, median (interquartile range)” value ([4]; Gly 389 carriers) was 19 ng/mL.
For `NS(=O)(=O)c1cc(C(=O)O)c(NCc2ccco2)cc1Cl` [Furosemide, furosemide], the “Parameter Estimate for use of the drug, multivariate analysis of change in Ejection Fraction” value (heart failure patients [3]) was 8.22 ejection fraction units.
For `COCCc1ccc(OCC(O)CNC(C)C)cc1` (stereo not shown) [metoprolol], the “95% confidence intervals for the change in LVEF” value [1] is listed as −8.2 to +22.6, the “24-hour SBP change” value ([5]; Del carrier) is listed as −8.3±21.6 and the “daytime SBP change” value ([5]; Del carrier) is listed as −9.4±21.7. The “nighttime SBP change” value ([5]; Del carrier) was −4.7±22.2, the “Nighttime DBP change” value ([5]; Del carriers) was 3.7±9.7 mm Hg and the “24-hour SBP change” value ([5]; Ins/Ins) was −8.8±16.4 mm Hg. For the same compound, the “Nighttime DBP change” value ([5]; Ins/Ins) was −8.0±8.8 mm Hg, the “daytime SBP change” value ([5]; Ins/Ins) was −9.5±16.6 mm Hg and the “nighttime SBP change” value ([5]; Ins/Ins) was −7.0±18.1 mm Hg. For the same compound, the adverse effects ([5]; all 40 hypertension patients) was “minor”.

Source: patent US20080269346A1, “B-Blocker Pharmacogenetics in Heart Failure” (University of Florida Research Foundation, Inc., priority 2005, published 2008)
